Assays:
mouse AChR αP120G = assay: Single-channel kinetics, αP120G AChR; type: cell-based; details: clusters at different concentrations of ACh
mouse AChR αV46A = assay: Single-channel kinetics, αV46A AChR; type: cell-based
mouse AChR αS126V = assay: Single-channel kinetics, αS126V AChR; type: cell-based; details: clusters at different concentrations of ACh
mouse AChR αS126A = assay: Single-channel kinetics, αS126A AChR; type: cell-based; details: clusters at different concentrations of ACh
mouse AChR αV46E = assay: Single-channel kinetics, αV46E AChR; type: cell-based
[1] = molecular target: T1, mouse muscle-type AChR wild-type (Mus musculus, UniProt P02716+P04756+P20782); details: wt AChR
T1 sequence (P04756 21-457): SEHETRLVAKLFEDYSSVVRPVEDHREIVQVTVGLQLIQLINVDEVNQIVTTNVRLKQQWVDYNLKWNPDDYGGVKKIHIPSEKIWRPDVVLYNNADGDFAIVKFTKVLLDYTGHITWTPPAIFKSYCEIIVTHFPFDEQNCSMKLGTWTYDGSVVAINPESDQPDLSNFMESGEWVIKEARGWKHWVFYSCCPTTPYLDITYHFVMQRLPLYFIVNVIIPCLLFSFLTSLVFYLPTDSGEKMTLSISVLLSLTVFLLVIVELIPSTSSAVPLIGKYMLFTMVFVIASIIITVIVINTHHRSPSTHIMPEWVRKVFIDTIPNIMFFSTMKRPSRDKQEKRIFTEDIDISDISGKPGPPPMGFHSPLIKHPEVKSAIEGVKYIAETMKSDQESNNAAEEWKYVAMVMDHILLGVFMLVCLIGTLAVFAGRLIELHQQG
T1 sequence (P09690 24-501 partner): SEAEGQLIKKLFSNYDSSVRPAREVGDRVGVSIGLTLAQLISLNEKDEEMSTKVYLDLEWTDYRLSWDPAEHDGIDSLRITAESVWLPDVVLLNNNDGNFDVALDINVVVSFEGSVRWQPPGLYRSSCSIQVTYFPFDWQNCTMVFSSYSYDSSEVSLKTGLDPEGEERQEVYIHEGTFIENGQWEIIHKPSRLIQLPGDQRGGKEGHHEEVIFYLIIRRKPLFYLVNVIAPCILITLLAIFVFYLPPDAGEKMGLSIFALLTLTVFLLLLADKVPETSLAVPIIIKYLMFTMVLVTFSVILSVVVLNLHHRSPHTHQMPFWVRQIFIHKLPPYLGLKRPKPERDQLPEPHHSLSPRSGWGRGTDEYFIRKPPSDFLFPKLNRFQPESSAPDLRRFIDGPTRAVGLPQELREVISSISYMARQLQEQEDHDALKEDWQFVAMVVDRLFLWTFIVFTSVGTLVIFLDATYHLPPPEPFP
T1 sequence (P02716 25-520): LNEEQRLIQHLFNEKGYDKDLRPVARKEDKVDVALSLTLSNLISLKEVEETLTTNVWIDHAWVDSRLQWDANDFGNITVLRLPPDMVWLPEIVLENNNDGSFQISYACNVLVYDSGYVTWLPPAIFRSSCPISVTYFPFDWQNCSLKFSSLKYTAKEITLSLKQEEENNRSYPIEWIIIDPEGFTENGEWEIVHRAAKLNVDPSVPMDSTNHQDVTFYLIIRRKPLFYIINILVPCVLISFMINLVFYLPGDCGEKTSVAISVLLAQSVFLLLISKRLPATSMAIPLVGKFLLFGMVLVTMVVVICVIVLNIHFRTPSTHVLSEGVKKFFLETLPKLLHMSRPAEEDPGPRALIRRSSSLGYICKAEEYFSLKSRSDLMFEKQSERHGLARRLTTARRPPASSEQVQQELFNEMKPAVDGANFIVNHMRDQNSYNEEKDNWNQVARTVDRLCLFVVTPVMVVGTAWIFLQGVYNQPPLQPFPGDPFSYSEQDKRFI
T1 sequence (P20782 21-493): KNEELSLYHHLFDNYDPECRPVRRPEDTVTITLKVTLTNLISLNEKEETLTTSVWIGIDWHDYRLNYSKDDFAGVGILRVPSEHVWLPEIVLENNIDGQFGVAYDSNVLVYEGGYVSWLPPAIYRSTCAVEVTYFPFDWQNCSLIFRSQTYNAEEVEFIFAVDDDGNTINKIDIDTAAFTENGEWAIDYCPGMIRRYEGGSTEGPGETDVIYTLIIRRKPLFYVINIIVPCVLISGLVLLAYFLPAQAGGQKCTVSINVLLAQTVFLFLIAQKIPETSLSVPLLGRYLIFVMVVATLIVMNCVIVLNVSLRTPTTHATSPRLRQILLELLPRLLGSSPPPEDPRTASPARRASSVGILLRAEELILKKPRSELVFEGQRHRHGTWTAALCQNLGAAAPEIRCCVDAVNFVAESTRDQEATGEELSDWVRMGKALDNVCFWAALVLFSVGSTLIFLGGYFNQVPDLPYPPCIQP

mouse AChR αR55W = details: 20 mM choline
mouse AChR αR55A = details: 20 mM choline
[2] = molecular target: T1, mouse muscle-type AChR wild-type; details: wt AChRs; ref Zhou et al., 1999; Grosman and Auerbach, 2000a; cited from earlier work
mouse AChR αR20L = details: 0.4 mM choline

CC(=O)OCC[N+](C)(C)C [ACh, acetylcholine]
α2 ACh (diliganded channel-closing rate constant) (mouse AChR αP120G): 2,006
β2 ACh (diliganded channel-opening rate constant) (mouse AChR αP120G): 49,531
α2 ACh (diliganded channel-closing rate constant) (mouse AChR αV46A; low ACh): 4,135 s^−1
β2 ACh (diliganded channel-opening rate constant) (mouse AChR αV46A; saturating ACh): 1,340 s^−1
α2 ACh (diliganded channel-closing rate constant) (mouse AChR αS126V): 1,770
β2 ACh (diliganded channel-opening rate constant) (mouse AChR αS126V): 40,253
α2 ACh (diliganded channel-closing rate constant) (mouse AChR αS126A): 2,598
β2 ACh (diliganded channel-opening rate constant) (mouse AChR αS126A): 48,918
α2 ACh (diliganded channel-closing rate constant) (mouse AChR αV46E; low ACh): 6,613 s^−1
β2 ACh (diliganded channel-opening rate constant) (mouse AChR αV46E; saturating ACh): 795 s⁻¹

C[N+](C)(C)CCO [Choline, choline]
α2 Choline (diliganded channel-closing rate constant) (mouse AChR αL56A; 0.4 mM choline): 2,707
β2 Choline (diliganded channel-opening rate constant) (mouse AChR αL56A; 20 mM choline): 217
α2 Choline (diliganded channel-closing rate constant) (mouse AChR αQ48A; 0.4 mM choline): 10,271 s^−1
β2 Choline (diliganded channel-opening rate constant) (mouse AChR αQ48A; 20 mM choline): 2,836 s^−1
α2 Choline (diliganded channel-closing rate constant) (mouse AChR αL146F; 0.4 mM choline): 2,234
β2 Choline (diliganded channel-opening rate constant) (mouse AChR αL146F; 20 mM choline): 97
α2 Choline (diliganded channel-closing rate constant) (mouse AChR αN47K; 0.4 mM choline): 2,371 s^−1
β2 Choline (diliganded channel-opening rate constant) (mouse AChR αN47K; 20 mM choline): 607 s⁻¹
α2 Choline (diliganded channel-closing rate constant) (mouse AChR αD138E; 0.4 mM choline): 1,456 s^−1
β2 Choline (diliganded channel-opening rate constant) (mouse AChR αD138E; 20 mM choline): 239 s⁻¹
α2 Choline (diliganded channel-closing rate constant) (mouse AChR αM144I; 0.4 mM choline): 2,823
β2 Choline (diliganded channel-opening rate constant) (mouse AChR αM144I; 20 mM choline): 93
α2 Choline (diliganded channel-closing rate constant) (mouse AChR αI116A; 0.4 mM choline): 2,238
β2 Choline (diliganded channel-opening rate constant) (mouse AChR αI116A; 20 mM choline): 110
α2 Choline (diliganded channel-closing rate constant) (mouse AChR αV46I; 0.4 mM choline): 1,982 s^−1
β2 Choline (diliganded channel-opening rate constant) (mouse AChR αV46I; 20 mM choline): 249 s⁻¹
α2 Choline (diliganded channel-closing rate constant) (mouse AChR αA122L; 0.4 mM choline): 2,142
β2 Choline (diliganded channel-opening rate constant) (mouse AChR αA122L; 20 mM choline): 358
α2 Choline (diliganded channel-closing rate constant) (mouse AChR αN47A; 0.4 mM choline): 1,450 s^−1
β2 Choline (diliganded channel-opening rate constant) (mouse AChR αN47A; 20 mM choline): 933 s⁻¹
α2 Choline (diliganded channel-closing rate constant) (mouse AChR αL65V; 0.4 mM choline): 2,166
β2 Choline (diliganded channel-opening rate constant) (mouse AChR αL65V; 20 mM choline): 124
α2 Choline (diliganded channel-closing rate constant) (mouse AChR αM144T; 0.4 mM choline): 1,180
β2 Choline (diliganded channel-opening rate constant) (mouse AChR αM144T; 20 mM choline): 54
α2 Choline (diliganded channel-closing rate constant) ([1]; 0.4 mM choline): 2,100 s^−1
β2 Choline (diliganded channel-opening rate constant) ([1]; 20 mM choline): 100 s⁻¹
α2 Choline (diliganded channel-closing rate constant) (mouse AChR αL146M; 0.4 mM choline): 2,435
β2 Choline (diliganded channel-opening rate constant) (mouse AChR αL146M; 20 mM choline): 118
α2 Choline (diliganded channel-closing rate constant) (mouse AChR αL40A; 0.4 mM choline): 1,629
β2 Choline (diliganded channel-opening rate constant) (mouse AChR αL40A; 20 mM choline): 312
α2 Choline (diliganded channel-closing rate constant) (mouse AChR αF137M; 0.4 mM choline): 1,017 s^−1
β2 Choline (diliganded channel-opening rate constant) (mouse AChR αF137M; 20 mM choline): 225 s⁻¹
β2 Choline (diliganded channel-opening rate constant) (mouse AChR αR55W): 98.2
α2 Choline (diliganded channel-closing rate constant) (mouse AChR αL110V; 0.4 mM choline): 1,874
β2 Choline (diliganded channel-opening rate constant) (mouse AChR αL110V; 20 mM choline): 70
α2 Choline (diliganded channel-closing rate constant) (mouse AChR αS143T; 0.4 mM choline): 2,200
β2 Choline (diliganded channel-opening rate constant) (mouse AChR αS143T; 20 mM choline): 118
α2 Choline (diliganded channel-closing rate constant) (mouse AChR αV29L; 0.4 mM choline): 2,644
β2 Choline (diliganded channel-opening rate constant) (mouse AChR αV29L; 20 mM choline): 200
α2 Choline (diliganded channel-closing rate constant) (mouse AChR αV54L; 0.4 mM choline): 1,340
β2 Choline (diliganded channel-opening rate constant) (mouse AChR αV54L; 20 mM choline): 124
α2 Choline (diliganded channel-closing rate constant) (mouse AChR αL35A; 0.4 mM choline): 2,423
β2 Choline (diliganded channel-opening rate constant) (mouse AChR αL35A; 20 mM choline): 182
α2 Choline (diliganded channel-closing rate constant) (mouse AChR αM144L; 0.4 mM choline): 2,911
β2 Choline (diliganded channel-opening rate constant) (mouse AChR αM144L; 20 mM choline): 917
α2 Choline (diliganded channel-closing rate constant) (mouse AChR αM144A; 0.4 mM choline): 2,514
β2 Choline (diliganded channel-opening rate constant) (mouse AChR αM144A; 20 mM choline): 64
α2 Choline (diliganded channel-closing rate constant) (mouse AChR αN141V; 0.4 mM choline): 1,389 s^−1
β2 Choline (diliganded channel-opening rate constant) (mouse AChR αN141V; 20 mM choline): 260 s⁻¹
β2 Choline (diliganded channel-opening rate constant) (mouse AChR αR55A): 164
diliganded gating equilibrium constant, times smaller than ACh [2]: 500 times
α2 Choline (diliganded channel-closing rate constant) (mouse AChR αS143A; 0.4 mM choline): 3,054
β2 Choline (diliganded channel-opening rate constant) (mouse AChR αS143A; 20 mM choline): 79
α2 Choline (diliganded channel-closing rate constant) (mouse AChR αR20L): 2,119
